This is an account of results in patent publication US11840531B2, “CDK8/19 inhibitors” (JOINT STOCK COMPANY “BIOCAD”, priority 2018, dated 2023).

Broadly, the microsomal CLint is a measure of how fast metabolising enzymes remove a compound, apart from limits set by blood flow. High values mean faster metabolism, low ones greater metabolic stability. For orientation: Papp A→B means how fast a substance crosses the layer from the apical side. The low end stands for poor permeation, the high end for ready permeation. For orientation: efflux ratio means a quotient of directional permeabilities that is used to spot active efflux. Broadly, the pIC50 is the IC50 on a negative log10 scale, so that one unit is a factor of ten. Lower therefore signals a large IC50. By CC50 is commonly meant the concentration that lowers cell viability or growth by half. Lower therefore signals harm at low concentration.

The nature of series [1]: Enzyme stability in human liver microsomes (Phase I). The class given is in vitro ADME. As to conditions: pH 7.4; 0.5 mg/mL pooled human liver microsomes, 10 μM compound, 37° C. On the procedure: Measuring of enzyme stability of the present compounds enabled estimation of their stability towards the action of Phase I biotransformation enzymes.
The rate of enzymatic decomposition of a compound was detected by incubating the reaction mixture in a dry block heater at 37° C.; the reaction mixture contained 0.5 mg/mL of pooled human liver microsomes (XenoTech, USA, cat #H6010), 10 μM of a compound, 2 mM β-nicotinamide adenine dinucleotide (Carbosynth, UK, cat #NN10871) and 4 mM of magnesium chloride in 0.1M sodium phosphate buffer (pH=7.4). The reaction was quenched with acetonitrile (100 μL of acetonitrile/100 μL of the reaction mixture). After quenching, the samples were centrifuged at 10000 rpm for 10 minutes. Supernatant fluid was tested by chromatographic technique using Agilent1200 (Agilent, USA). Chromatographic analysis was performed in a gradient elution regime with a flow rate of 1 mL/min. A graph of the logarithm of substance's peak area as a function of time was made. The dependent factor of the line corresponded to the elimination rate constant K based on which the drug's half-lif½e T and degradation rate CLint were calculated:
Based on the data obtained, candidates' enzyme stability in human liver microsomes was determined.
In general terms: Liver microsomes are vesicles of endoplasmic reticulum, rich in cytochrome P450 enzymes.

Series [2] can be described thus: Permeability through Caco-2 cell monolayer. The class given is in vitro ADME. As to conditions: human; for Papp A→B at 2 h, 10 μM: Caco-2, A→B, pH 6.5/7.4, 2 hour incubation; for efflux ratio at 2 h, 10 μM: Caco-2, Papp B-A/Papp A-B. On the procedure: Estimation of permeability through Caco-2 cell monolayer enables assessment of the ability of the substances to penetrate through biological membranes by means of both active and passive transport.
Intestinal epithelial cells Caco-2 were grown on filter inserts (pore size 0.4 jam, BD Falcon with High Density) for 21 days; monolayer integrity was then checked using Lucifer Yellow (Sigma-Aldrich, USA) according to the standard protocol. In A→B transfer (“intestinal lumen”-“blood stream” transfer), solutions of the test substances in buffer, pH 6.5 (HBSS, 10 mM HEPES, 15 mM glucose) at a concentration of 10 μM were added to the upper chamber; whereas the lower chamber was filled with buffer, pH 7.4 (HBSS, 10 mM HEPES, 15 mM Glucose, 1% BSA). In B→A transfer (“blood stream”-“intestinal lumen” transfer), the upper chamber was filled with buffer, pH 6.5, whereas the solutions of the test substances in buffer, pH 7.4, at a concentration of 10 μM were added to the lower chamber. A highly permeable substance propranolol was used as a control.
After 2 hour incubation at 37° C. under an atmosphere containing 5% CO2, the amounts of the test substances in the upper and lower chambers were measured by HPLC using an Agilent1200 HPLC system (Agilent, USA), proteins were preliminarily precipitated with acetonitrile. Chromatographic analysis was performed in a gradient elution regime with a flow rate of 1 mL/min. The peak areas corresponding to the compounds were detected on chromatograms. Based on the peak areas of a compound in the calibration standards, concentration of the compound in the initial solution and in the samples from upper chamber wells and lower chamber wells was measured.
Cellular permeability coefficient Papp was calculated by the formula: Papp=(Ca(t)*Va)/(Cd(0)*t*Area), where Papp is the effective permeability constant, m/s V is the volume of solution (0.8 ml in A→B test, 0.2 ml in B→A test), ml Area is the membrane surface area (0.33 cm^2), cm^2 t is the time of incubation (7200 sec), sec Cd(0) is the initial solution concentration, μM Ca(t) is the concentration of the solution after 2 hours (the concentration in the sample from the well of the lower chamber in A→B test; the concentration in the sample from the well of the top chamber in B→A test), μM
The value was calculated by the following formula: efflux=Papp B-A/Papp A-B, where Pape A-B-direct A→B test permeability value Papp B-A-reverse B→A test permeability value

The test system of another series is KG-1 cells. Briefly: Antiproliferative activity, KG-1 cells (AlamarBlue). As to conditions: Homo sapiens, KG-1, 120 h, 120 h incubation. The class given is cell-based. On the procedure:
Antiproliferative activity of CDK8 inhibitors according to the present invention was measured in a cell-based test on continuous cell cultures MV4-11 (biphenotypic myelomonocytic leukemia, ATCC® CRL-9591™), KG-1 (acute myeloid leukemia, ATCC® CCL-246™) using a vital stain AlamarBlue (ThermoFisher, #DAL1100). The cells were grown in RPMI-1640 (PanEco, #C330p) medium with addition of 10% FBS (Gibco, #16140-071); washed and resuspended in culture medium with 10% FBS (Gibco, #16140-071) in 96-well culture plates (Corning, #3599) with ≈10×10^3 cells in […] of medium per well. The compounds in question were dissolved in DMSO and diluted with a medium with 10% FBS (Gibco, #16140-071) to a final concentration ranging from 0 to 100 μM. […] of diluted compounds were then added to each well (final DMSO concentration was less than 1%) and incubated under 5% CO2 atmosphere at 37° C. for 120 h. After incubating, 15 μL/well of AlamarBlue (ThermoFisher, #DAL1100) reagent was added, contents of plates were mixed in an orbital shaker (Biosan, Latvia) and further incubated for 3-5 h at 37° C. under 5% CO2 atmosphere. Number of living cells was estimated using a microplate spectrophotometer (Tecan Infinite M200Pro, Switzerland) measuring fluorescent signal at the excitation wavelength (λEx) of 540 nm and emission wavelength (λEm) of 590 nm.
IC50 values were calculated using Magellan 7.2 software (Tecan, Switzerland) approximating experimental points by four-parameter logistic model with the optimization by Levenberg-Marquardt (Table 6).

A short description of series [3]: General cytotoxicity on HepG2 cells. The class given is cell-based. The conditions noted are these: human, 72 h incubation. On the procedure: The CC50 values were determined in the test for General cytotoxicity On HepG2 cells (hepatocellular carcinoma, ATCC® HB-8065™). Cells per well were seeded in 96-well plates (Corning, #3599) at a concentration ≈20×10^3 cells in 100 μL of medium and incubated for 72 h with added compounds within the range of concentrations of 200 to 0.78 μM. Cell viability was assessed using the above method.

pIC50: −log10 of the molar value.

In the case of `COCCn1cc(-c2ccc(-c3cnc(N)c4ncc(C(=O)NCC5CC5)cc34)cc2)cn1` [Compound 3.45, 8-amino-N-(cyclopropylmethyl)-5-(4-(1-(2-methoxyethyl)-1H-pyrazole-4-yl)phenyl)-1,7-naphthyridine-3-carboxamide], the microsomal CLint at 10 μM in series [1] was 39.6 µL/min/mg. In addition, in series [2], the Papp A→B at 2 h, 10 μM was determined as 34.5 ×10⁻⁶ cm/s and the efflux ratio at 2 h, 10 μM amounted to 0.37. In the series on KG-1 cells, this molecule gave a pIC50 of 10.00. Moreover, in series [3], half-maximal cytotoxicity (CC50 at 72 h) was put at 17400 nM.
Turning to `COCCn1cc(-c2ccc(-c3cnc(N)c4ncc(C(=O)NC5CC5)cc34)cc2)cn1` [Compound 3.48], the microsomal CLint at 10 μM in series [1] amounted to 18 µL/min/mg. Further, in series [2], the Papp A→B at 2 h, 10 μM was 36.2 ×10⁻⁶ cm/s and the efflux ratio at 2 h, 10 μM was 0.64. This molecule had a negative-log IC50 (pIC50) in the series with KG-1 cells of 8.57. The same molecule registered a CC50 at 72 h in series [3] of 31800 nM.
As for `CN(C)C(=O)Cn1cc(-c2ccc(-c3cnc(N)c4ncc(C(=O)N5CCC5)cc34)cc2)cn1` [Compound 3.52, 2-(4-(4-(8-amino-3-(azetidine-1-carbonyl)-1,7-naphthyridine-5-yl)phenyl)-1H-pyrazole-1-yl)-N,N-dimethylacetamide], in series [1], the microsomal CLint at 10 μM was 7 µL/min/mg. For the same molecule, in series [2], the Papp A→B at 2 h, 10 μM is 18.7 ×10⁻⁶ cm/s and the efflux ratio at 2 h, 10 μM turned out to be 1.66. For the same molecule, the negative-log IC50 (pIC50) in the series on KG-1 cells is 8.92. The molecule also showed a CC50 at 72 h in series [3] of over 100000 nM.
